Consider 86 compounds from the OPERA property sets (Mansouri et al. 2018).

Each structure is given as a SMILES string.

One may read the logP as a log measure of how a compound divides between an organic and an aqueous phase. High values mean higher lipophilicity, low ones lower lipophilicity. Turning to `NC(=O)NN=Cc1ccccc1`, the log partition coefficient (logP) was determined as 1.27.
Under `CCN(CC)c1c(C)n(C)c(=O)n(-c2ccccc2)c1=O` stands 2.11; under `CC(=O)Nc1ccc(S(C)(=O)=O)cc1`, 0.58; under `CCOC(=O)CON=Cc1ccc(OCCOC(=O)c2cc(OC)c(OC)c(OC)c2)c(OC)c1`, 3.26.
The result for `CNC(=S)Nc1ccccc1` reads 0.85; that for `CN(C)c1ccc(C(=C2C=CC(=[N+](C)C)C=C2)c2ccc(N(C)C)cc2)cc1.[Cl-]`, 0.96; that for `CC1(O)OC(=O)c2ccccc21` (stereo unspecified), 0.81.
Take `CSc1nccc(=O)[nH]1`: the logP is 0.22.
Under `Cc1c(N(C)C)c(=O)n(C)c(=O)n1C` stands 0.99.
Under `CC=CC(=O)Nc1ccc(Cl)c(Cl)c1` stands 3.63; under `CCOc1ccccc1NC(C)=O`, 1.49.
The result for `Cc1cccc(C)c1NC(=O)c1cccc(CN2CCOCC2)c1` reads 2.14; that for `CC(=O)OC[C@@H](OC(C)=O)[C@@H](OC(C)=O)[C@H](OC(C)=O)[C@H](C=O)OC(C)=O`, 0.63; that for `O=CC=Cc1ccco1`, 1.15.
On to `COc1ccc(Cc2cnc(N)nc2N)c(OC)c1OC`, for which the logP came out at 1.52.
Under `CC1(C)OC2CC3C4CC(F)C5=CC(=O)C(Cl)=CC5(C)C4(F)C(O)CC3(C)C2(C(=O)CO)O1` (stereo unspecified) stands 2.99; under `CCOC(=O)N=[N+]([O-])c1ccccc1`, 2.53; under `CCOCCOC(=O)C(C#N)=C(CC)Nc1ccc([N+](=O)[O-])cc1`, 2.6.
The result for `CCC[Si](C)(C)C` reads 3.84; that for `CCOC(=O)CNCCCCCSc1c2[nH]cnc2nc[n+]1[O-]`, 0.87; that for `COc1ncccn1`, 0.23.
Under `COc1ccc(-c2nc3ccccc3[nH]2)c(OC)c1` stands 2.59; under `COc1cc(Cc2cnc(N)nc2N)cc(OC)c1N(C)C`, 1.51; under `C#CCCC(=O)N(C)c1ccc(S(=O)(=O)N(C)C)cc1`, 0.88.
As to `CN(C)C(=S)Nc1ccccc1`, the lipophilicity (logP) was determined as 1.04.
The result for `Nc1nc(N)c2ncn(COCCO)c2n1` reads -1.06.
Under `CSc1ncnc2c1ccn2C1OC(CO)C(O)C1O` (stereo unspecified) stands 0.09.
The result for `COc1cc(C=NO)ccc1OCCOC(=O)c1ccccc1` reads 2.94; that for `O=C(Nc1ccc(Cl)c(Cl)c1)C(F)F`, 3.18.
In the case of `CCCCC(=O)Nc1ccc(Cl)c(Cl)c1`, the logP turned out to be 4.17.
Under `CCCCOc1ccnc(C=CC2=CC([N+](=O)[O-])O2)n1` (stereo unspecified) stands 2.04; under `Cc1cccc(C)c1NC(=O)c1cccc(CN2CCCC2)c1`, 3.1.
Under `CCCCCCCCNC(N)=NNC(=O)Nc1ccc(Cl)cc1` stands 4.35; under `CC(=O)N(C)c1ccc(S(=O)(=O)N(C)C)cc1`, 0.23; under `CC1=C(C(=O)O)N2C(=O)C(NC(=O)C(O)c3ccccc3)C2SC1` (stereo unspecified), 0.46.
Under `O=C(C=Cc1ccc2c(c1)OCO2)N1CCCCC1` stands 2.82; under `CC(=O)NC1CCSC1=O` (stereo unspecified), -0.35.
In turn, `Cc1c(-c2ccccc2)oc2ccccc2c1=O` yielded a logP of 3.92.
Turning to `CC(=O)NC1=CC(=O)N(c2ccc(Cl)cc2)C1=O`, the logP was 0.75.
The result for `C=CCN(C)N=Nc1ccc(C(N)=O)cc1` reads 2.09; that for `CC(=O)N(CC(=O)Nc1ccccc1)c1ccccc1`, 2.01.
Under `FC(F)(F)C(F)(F)C(F)(F)C(F)(F)C(F)(F)F` stands 4.4; under `ON=C(c1ccccc1)c1ccccc1`, 3.2.
The result for `CCOCCOC(=O)C(C#N)=C(NCc1ccc(Cl)cc1)C(C)C` reads 4.05; that for `Cn1c(SCC2=C(C(=O)O)N3C(=O)C(NC(=O)Cc4cccs4)C3SC2)nnc(O)c1=O` (stereo unspecified), -0.52.
On to `O=C(NC(CO)C(O)c1ccc(NC(=O)C2CC2)cc1)C(Cl)Cl` (stereo unspecified), for which the logP turned out to be 0.75.
`CN(C(=O)CCSC#N)c1ccc(S(=O)(=O)N(C)C)cc1` gave a logP of 0.84. The logP values of the last two compounds are within 0.2 log units of each other.
The result for `CC(C)OC(=O)c1ccccc1` reads 3.18.
Under `Cc1c2ccncc2cc2c1[nH]c1ccccc12` stands 4.06.
`NC1=NC(C(F)(F)F)(C(F)(F)F)NC1(C(F)(F)F)C(F)(F)F` registered a logP of 3.35.
The compound `COc1cc(C=O)ccc1OCCOC(=O)c1ccc(Cl)cc1` came in with a lipophilicity (logP) of 3.71.
In turn, `O=NN(CCCl)C(=O)NC1CCC(NC(=O)N(CCCl)N=O)CC1` (stereo unspecified) returned a logP of 2.74.
The result for `Cc1c(N2CCCC2)c(=O)n(-c2ccccc2)c(=O)n1C` reads 2.26; that for `COc1cccc(Cc2cnc(N)nc2N)c1OC`, 1.62.
The result for `CCOC(=O)c1ccc(NC(=O)C(F)(F)F)cc1` reads 2.25.
The result for `O=C(O)c1cc(=O)c2cc3c(cc2o1)CCCC3` reads 3.4.
`COc1ccc2c(=O)c(C)c(C(C)C)oc2c1` came in with a logP of 3.39.
Under `CC(=O)Nc1ccc(C(C)(C)C)cc1` stands 3.05.
Compound `N=c1ccn2c(n1)O[C@H]1[C@H](O)[C@@H](CO)O[C@H]12` had a logP of -2.37.
The result for `COC(=O)c1cc2nc(S(=O)Cc3ncccc3C)[nH]c2cc1C` (stereo unspecified) reads 2.4.
The result for `CCC(=O)OCCOc1ccc(C=O)cc1OC` reads 1.33; that for `CCCC(=O)Nc1ccc(Cl)c(Cl)c1`, 3.77; that for `Cc1c(N2CCOCC2)c(=O)n(-c2ccccc2)c(=O)n1C`, 0.69.
Under `NC(=O)c1cccnc1N` stands 0.88.
Compound `COc1ccc(-c2nc3ncccc3[nH]2)c(OC)c1` gave a logP of 2.57.
Under `Cc1nccnn1` stands -1.31; under `OC(c1ccccc1)(c1ccccc1)c1ccccc1`, 3.68; under `O=C(O)c1cc(=O)c2ccccc2o1`, 1.63.
The result for `COC(=O)c1ccccc1NC(C)=O` reads 1.65.
The result for `COCC(=O)Nc1ccc(Cl)c(Cl)c1` reads 2.77; that for `COc1cc(C=NO)ccc1OCCOC(=O)c1ccccc1OC`, 2.84; that for `O=NN(CCCl)C(=O)NC1(C(=O)O)CCCC1`, 2.01.
Turning to `O=S(Cc1ccccn1)c1nc2ccccc2[nH]1` (stereo unspecified), the logP is 1.33.
As to `COC(=O)c1cccc(NC(C)=O)c1`, the logP stood at 1.46.
Consider `CCCc1ccc(NC(C)=O)cc1`, for which the logP stood at 2.75.
The result for `O=c1cc(-c2ccc(O)cc2)oc2ccccc12` reads 3.2; that for `COc1ccc(-c2nc3ccncc3[nH]2)c(OCCCCl)c1`, 3.53; that for `COc1cc(S(C)=O)ccc1-c1cn2ccncc2n1` (stereo unspecified), 1.11.
The compound `O=C1NC(c2cccc3ccccc23)Nc2ccccc21` (stereo unspecified) showed a logP of 2.96.
The result for `O=S(=O)(NS(=O)(=O)c1ccccc1)c1ccccc1` reads 0.52; that for `O=C(O)c1cc(=O)c2c(OCC(O)COc3cccc4oc(C(=O)O)cc(=O)c34)cccc2o1`, 1.92; that for `O=C(Nc1ccc(Cl)c(Cl)c1)C(F)(F)F`, 3.9.
The result for `NC(=O)c1nc[nH]c1N=NN(CCO)Cc1ccccc1` reads 0.99; that for `O=C(Nc1ccc(Cl)c(Cl)c1)C1CCCC1`, 4.47.
The result for `S=C=Nc1cccc(Br)c1` reads 4.12.
In turn, `CCCc1ccc2c(c1)C(=O)c1ccc(NC(C)=O)cc1S2(=O)=O` showed a logP of 3.51.
